Results as given in ChEMBL document CHEMBL2073871, “Human P-glycoprotein transports cortisol, aldosterone, and dexamethasone, but not progesterone” (J Biol Chem, 1992).

Tests used:
[1] = molecular target: T1, ATP-dependent translocase ABCB1 (Homo sapiens, UniProt P08183); test: TP_TRANSPORTER: inhibition of Cortisol transepithelial transport (basal to apical) (Cortisol: 0.011? uM, Progesterone: 50 uM) in MDR1-expressing LLC-PK1 cells; format: functional, cell-based; details: pig, llc-pk1, 50 µM
[2] = molecular target: T1, ATP-dependent translocase ABCB1; test: TP_TRANSPORTER: transepithelial transport (basal to apical) in MDR1-expressing LLC-PK1 cells; format: functional, cell-based; details: pig

T1 sequence (P08183 whole entry): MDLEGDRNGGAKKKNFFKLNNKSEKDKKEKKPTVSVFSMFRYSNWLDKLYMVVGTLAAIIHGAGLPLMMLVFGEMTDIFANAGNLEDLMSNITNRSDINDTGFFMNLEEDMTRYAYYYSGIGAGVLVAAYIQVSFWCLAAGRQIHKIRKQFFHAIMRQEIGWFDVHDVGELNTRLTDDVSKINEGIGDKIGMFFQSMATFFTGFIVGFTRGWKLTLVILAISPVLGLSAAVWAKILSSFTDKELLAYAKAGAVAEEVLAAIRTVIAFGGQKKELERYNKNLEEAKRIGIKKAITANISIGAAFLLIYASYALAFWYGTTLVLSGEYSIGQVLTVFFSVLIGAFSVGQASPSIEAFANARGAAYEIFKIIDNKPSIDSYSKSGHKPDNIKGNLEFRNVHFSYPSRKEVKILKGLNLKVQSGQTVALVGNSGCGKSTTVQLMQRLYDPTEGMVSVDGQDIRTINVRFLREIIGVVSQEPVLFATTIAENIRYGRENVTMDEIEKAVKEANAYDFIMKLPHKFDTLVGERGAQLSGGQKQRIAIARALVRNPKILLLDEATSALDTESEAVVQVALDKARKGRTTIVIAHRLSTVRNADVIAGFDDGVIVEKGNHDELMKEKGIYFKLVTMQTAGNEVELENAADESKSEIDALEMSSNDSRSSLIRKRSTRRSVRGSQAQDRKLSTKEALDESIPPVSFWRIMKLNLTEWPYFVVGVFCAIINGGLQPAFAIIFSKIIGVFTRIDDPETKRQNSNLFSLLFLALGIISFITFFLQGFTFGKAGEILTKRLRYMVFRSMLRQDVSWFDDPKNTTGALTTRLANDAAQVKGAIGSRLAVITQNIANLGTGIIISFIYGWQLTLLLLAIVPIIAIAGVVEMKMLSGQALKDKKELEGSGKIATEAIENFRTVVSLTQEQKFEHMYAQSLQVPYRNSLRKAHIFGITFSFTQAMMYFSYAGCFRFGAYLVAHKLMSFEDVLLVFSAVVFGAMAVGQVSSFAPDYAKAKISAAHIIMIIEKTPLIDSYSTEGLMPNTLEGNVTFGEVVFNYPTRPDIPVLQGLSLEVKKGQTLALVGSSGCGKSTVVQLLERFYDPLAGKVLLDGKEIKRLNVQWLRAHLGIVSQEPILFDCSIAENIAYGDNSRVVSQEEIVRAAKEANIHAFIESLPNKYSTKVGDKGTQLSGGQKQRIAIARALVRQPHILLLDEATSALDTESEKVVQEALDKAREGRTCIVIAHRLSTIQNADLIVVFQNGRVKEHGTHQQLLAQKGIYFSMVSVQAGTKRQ

Activity [2]	Compound	Activity [1]
substrate [+]	C[C@]12CCC(=O)C=C1CC[C@@H]1[C@@H]2[C@@H](O)C[C@@]2(C)[C@H]1CC[C@]2(O)C(=O)CO [HYDROCORTISONE]	–
substrate [+]	C[C@]12CCC(=O)C=C1CC[C@@H]1[C@@H]2[C@@H](O)C[C@]2(C=O)[C@@H](C(=O)CO)CC[C@@H]12 [ALDOSTERONE]	–

Compound	Activity [2]	Activity [1]
CC(=O)[C@H]1CC[C@H]2[C@@H]3CCC4=CC(=O)CC[C@]4(C)[C@H]3CC[C@]12C [PROGESTERONE]	is not a substrate [-]	inhibitor [+]
